Source: article PMC8374649, “IBI362 (LY3305677), a weekly-dose GLP-1 and glucagon receptor dual agonist, in Chinese adults with overweight or obesity: A randomised, placebo-controlled, multiple ascending dose phase 1b study” (EClinicalMedicine, 2021)

Test system: Chinese adults with overweight or obesity
Assay: Safety and tolerability (treatment emergent adverse events), multiple ascending dose phase 1b study
Type: in vivo, human
Description: The study included a 3-week screening period, a 12-week treatment period and an 8-week safety follow-up period. During the 12-week treatment period, the dose of IBI362 or placebo was escalated within each cohort according to one of the three dose-escalation schedules (Fig. S1). The dose-escalation regimen for the 3.0 mg cohort was 1.0 mg for 4 weeks, followed by 2.0 mg for 4 weeks and then 3.0 mg for the final 4 weeks. The dose-escalation regimen for the 4.5 mg cohort was 1.5 mg for 4 weeks, followed by 3.0 mg for 4 weeks and then 4.5 mg for the final 4 weeks. The dose-escalation regimen for the 6.0 mg cohort was 2.0 mg for 4 weeks, followed by 4.0 mg for 4 weeks and then 6.0 mg for the final 4 weeks. The 6.0 mg cohort started dosing after tolerability evaluation of 1.5 mg dosing in the 4.5 mg cohort. The internal unblinded safety monitoring group was responsible for the safety monitoring. All treatments were subcutaneously administered once a week. Investigators and authorized study personnel in each centre recorded the study data into the electronic case report forms (eCRFs), which were reviewed and validated by clinical research associates (CRAs). The data in the eCRFs were submitted to the electronic data capture (EDC) database. HbA1c, fasting plasma glucose and fasting insulin tests were performed in a central lab (Wuxi AppTec Inc.).
The primary endpoints of the study were safety and tolerability of IBI362. Adverse events (AEs) were categorised according to the Medical Dictionary for Regulatory Activities system organ class and preferred terms. Treatment emergent adverse events (TEAEs) and serious adverse events were monitored in all participants throughout the treatment period and the safety follow-up period. The severity of the AEs (mild, moderate or severe) and the association between an AE and the study drug was assessed by investigators based on pre-specified criteria.
Safety analyses were done in the safety population (defined as all participants who received at least one dose of the study treatment). Pharmacokinetic analyses were done in the pharmacokinetic population (defined as all participants who received at least one dose of IBI362 and had at least one valid plasma concentration assessment). Pharmacodynamic analyses were done in the pharmacodynamic population (defined as all participants who received at least one dose of the study treatment and had baseline and at least one valid assessment). Efficacy analyses were done in the efficacy population (defined as all participants who received at least one dose of the study treatment and had at least one post-baseline assessment).

[1] = 3.0 mg cohort (1.0-2.0-3.0 mg sc once weekly, 4 weeks each), n = 8
[2] = 4.5 mg cohort (1.5-3.0-4.5 mg sc once weekly, 4 weeks each), n = 8
[3] = 6.0 mg cohort (2.0-4.0-6.0 mg sc once weekly, 4 weeks each), n = 8

CC(C)C[C@H](NC(=O)[C@H](CC(C)C)NC(=O)[C@H](Cc1c[nH]c2ccccc12)NC(=O)[C@H](CCC(=O)O)NC(=O)[C@@H](NC(=O)[C@H](Cc1ccccc1)NC(=O)[C@H](CCC(=O)O)NC(=O)[C@H](CCCCNC(=O)COCCOCCNC(=O)COCCOCCNC(=O)CC[C@H](NC(=O)CCCCCCCCCCCCCCCCCCC(=O)O)C(=O)O)NC(=O)[C@H](C)NC(=O)[C@H](CCCCN)NC(=O)[C@H](CCCCN)NC(=O)[C@H](CCC(=O)O)NC(=O)[C@H](CC(=O)O)NC(=O)[C@H](CC(C)C)NC(=O)[C@H](Cc1ccc(O)cc1)NC(=O)[C@H](CCCCN)NC(=O)[C@H](CO)NC(=O)[C@H](Cc1ccc(O)cc1)NC(=O)[C@H](CC(=O)O)NC(=O)[C@H](CO)NC(=O)[C@@H](NC(=O)[C@H](Cc1ccccc1)NC(=O)[C@@H](NC(=O)CNC(=O)[C@H](CCC(N)=O)NC(=O)C(C)(C)NC(=O)[C@@H](N)Cc1c[nH]cn1)[C@@H](C)O)[C@@H](C)O)C(C)C)C(=O)N[C@@H](CCC(=O)O)C(=O)NCC(=O)NCC(=O)N1CCC[C@H]1C(=O)N[C@@H](CO)C(=O)N[C@@H](CO)C(=O)NCC(N)=O [IBI362]
Abdominal distension [1]: 1 (12.5) n (%)
Abdominal pain [1]: 0 n (%)
Atrioventricular block first degree [1]: 1 (12.5) n (%)
Back pain [1]: 1 (12.5) n (%)
Blood glucose increased [1]: 0 n (%)
Calculus urinary [1]: 1 (12.5) n (%)
Cardiac disorders (system organ class) [1]: 1 (12.5) n (%)
Constipation [1]: 1 (12.5) n (%)
Decreased appetite [1]: 1 (12.5) n (%)
Diarrhea [1]: 0 n (%)
Dry mouth [1]: 0 n (%)
Dyslipidaemia [1]: 0 n (%)
Dysmenorrhoea [1]: 1 (12.5) n (%)
Dyspepsia [1]: 0 n (%)
Fatigue [1]: 0 n (%)
Folliculitis [1]: 0 n (%)
Gastrointestinal AE, Mild [1]: 2 (25.0) n (%)
Gastrointestinal AE, Moderate [1]: 1 (12.5) n (%)
Gastrointestinal disorders (system organ class) [1]: 4 (50.0) n (%)
Gastrointestinal inflammation [1]: 1 (12.5) n (%)
General disorders and administration site conditions (system organ class) [1]: 1 (12.5) n (%)
Hiccups [1]: 0 n (%)
Hyperlipidaemia [1]: 0 n (%)
Hyperuricaemia [1]: 0 n (%)
Hypoglycaemia event [1]: 0 n (%)
Infections and infestations (system organ class) [1]: 4 (50.0) n (%)
Injury, poisoning and procedural complications (system organ class) [1]: 1 (12.5) n (%)
Investigations (system organ class) [1]: 0 n (%)
Menstruation irregular [1]: 0 n (%)
Mental fatigue [1]: 0 n (%)
Metabolism and nutrition disorders (system organ class) [1]: 1 (12.5) n (%)
Mouth ulceration [1]: 1 (12.5) n (%)
Musculoskeletal and connective tissue disorders (system organ class) [1]: 1 (12.5) n (%)
Myocardial ischemia [1]: 0 n (%)
Nasopharyngitis [1]: 1 (12.5) n (%)
Nausea [1]: 0 n (%)
Neutrophil count increased [1]: 0 n (%)
Oropharyngeal pain [1]: 0 n (%)
Proteinuria [1]: 0 n (%)
Psychiatric disorders (system organ class) [1]: 0 n (%)
Pyrexia [1]: 1 (12.5) n (%)
Renal and urinary disorders (system organ class) [1]: 1 (12.5) n (%)
Reproductive system and breast disorders (system organ class) [1]: 1 (12.5) n (%)
Respiratory, thoracic and mediastinal disorders (system organ class) [1]: 0 n (%)
Serious adverse event [1]: 0 n (%)
Sinus tachycardia [1]: 0 n (%)
Skin and subcutaneous tissue disorders (system organ class) [1]: 1 (12.5) n (%)
Soft tissue injury [1]: 1 (12.5) n (%)
Starvation [1]: 0 n (%)
TEAE (individuals with ≥ 1 TEAE) [1]: 6 (75.0) n (%)
Thermal burn [1]: 0 n (%)
Tonsillitis [1]: 1 (12.5) n (%)
Treatment-related AE [1]: 3 (37.5) n (%)
Upper respiratory tract infection [1]: 2 (25.0) n (%)
Urticaria [1]: 1 (12.5) n (%)
Vomiting [1]: 1 (12.5) n (%)
White blood cell count increased [1]: 0 n (%)
Abdominal distension [2]: 0 n (%)
Abdominal pain [2]: 2 (25.0) n (%)
Atrioventricular block first degree [2]: 0 n (%)
Back pain [2]: 0 n (%)
Blood glucose increased [2]: 0 n (%)
Calculus urinary [2]: 0 n (%)
Cardiac disorders (system organ class) [2]: 2 (25.0) n (%)
Constipation [2]: 0 n (%)
Decreased appetite [2]: 5 (62.5) n (%)
Diarrhea [2]: 3 (37.5) n (%)
Dry mouth [2]: 2 (25.0) n (%)
Dyslipidaemia [2]: 1 (12.5) n (%)
Dysmenorrhoea [2]: 0 n (%)
Dyspepsia [2]: 0 n (%)
Fatigue [2]: 1 (12.5) n (%)
Folliculitis [2]: 0 n (%)
Gastrointestinal AE [2]: 5 (62.5) n (%)
Gastrointestinal AE, Mild [2]: 5 (62.5) n (%)
Gastrointestinal AE, Moderate [2]: 0 n (%)
Gastrointestinal disorders (system organ class) [2]: 5 (62.5) n (%)
Gastrointestinal inflammation [2]: 0 n (%)
General disorders and administration site conditions (system organ class) [2]: 1 (12.5) n (%)
Hiccups [2]: 0 n (%)
Hyperlipidaemia [2]: 0 n (%)
Hyperuricaemia [2]: 1 (12.5) n (%)
Hypoglycaemia event [2]: 0 n (%)
Infections and infestations (system organ class) [2]: 2 (25.0) n (%)
Injury, poisoning and procedural complications (system organ class) [2]: 1 (12.5) n (%)
Investigations (system organ class) [2]: 1 (12.5) n (%)
Menstruation irregular [2]: 0 n (%)
Mental fatigue [2]: 1 (12.5) n (%)
Metabolism and nutrition disorders (system organ class) [2]: 6 (75.0) n (%)
Mouth ulceration [2]: 0 n (%)
Musculoskeletal and connective tissue disorders (system organ class) [2]: 0 n (%)
Myocardial ischemia [2]: 1 (12.5) n (%)
Nasopharyngitis [2]: 0 n (%)
Nausea [2]: 3 (37.5) n (%)
Neutrophil count increased [2]: 1 (12.5) n (%)
Oropharyngeal pain [2]: 1 (12.5) n (%)
Proteinuria [2]: 2 (25.0) n (%)
Psychiatric disorders (system organ class) [2]: 1 (12.5) n (%)
Pyrexia [2]: 0 n (%)
Renal and urinary disorders (system organ class) [2]: 2 (25.0) n (%)
Reproductive system and breast disorders (system organ class) [2]: 0 n (%)
Respiratory, thoracic and mediastinal disorders (system organ class) [2]: 1 (12.5) n (%)
Serious adverse event [2]: 0 n (%)
Sinus tachycardia [2]: 1 (12.5) n (%)
Skin and subcutaneous tissue disorders (system organ class) [2]: 0 n (%)
Soft tissue injury [2]: 0 n (%)
Starvation [2]: 0 n (%)
TEAE (individuals with ≥ 1 TEAE) [2]: 7 (87.5) n (%)
Thermal burn [2]: 1 (12.5) n (%)
Tonsillitis [2]: 0 n (%)
Treatment-related AE [2]: 7 (87.5) n (%)
Upper respiratory tract infection [2]: 2 (25.0) n (%)
Urticaria [2]: 0 n (%)
Vomiting [2]: 0 n (%)
White blood cell count increased [2]: 1 (12.5) n (%)
Abdominal distension [3]: 0 n (%)
Abdominal pain [3]: 0 n (%)
Atrioventricular block first degree [3]: 0 n (%)
Back pain [3]: 0 n (%)
Blood glucose increased [3]: 0 n (%)
Calculus urinary [3]: 0 n (%)
Cardiac disorders (system organ class) [3]: 0 n (%)
Constipation [3]: 0 n (%)
Decreased appetite [3]: 1 (12.5) n (%)
Diarrhea [3]: 3 (37.5) n (%)
Dry mouth [3]: 0 n (%)
Dyslipidaemia [3]: 0 n (%)
Dysmenorrhoea [3]: 0 n (%)
Dyspepsia [3]: 1 (12.5) n (%)
Fatigue [3]: 0 n (%)
Folliculitis [3]: 1 (12.5) n (%)
Gastrointestinal AE [3]: 4 (50.0) n (%)
Gastrointestinal AE, Mild [3]: 3 (37.5) n (%)
Gastrointestinal AE, Moderate [3]: 1 (12.5) n (%)
Gastrointestinal disorders (system organ class) [3]: 4 (50.0) n (%)
Gastrointestinal inflammation [3]: 0 n (%)
General disorders and administration site conditions (system organ class) [3]: 0 n (%)
Hiccups [3]: 1 (12.5) n (%)
Hyperlipidaemia [3]: 0 n (%)
Hyperuricaemia [3]: 1 (12.5) n (%)
Hypoglycaemia event [3]: 0 n (%)
Infections and infestations (system organ class) [3]: 1 (12.5) n (%)
Injury, poisoning and procedural complications (system organ class) [3]: 0 n (%)
Investigations (system organ class) [3]: 0 n (%)
Menstruation irregular [3]: 0 n (%)
Mental fatigue [3]: 0 n (%)
Metabolism and nutrition disorders (system organ class) [3]: 3 (37.5) n (%)
Mouth ulceration [3]: 0 n (%)
Musculoskeletal and connective tissue disorders (system organ class) [3]: 0 n (%)
Myocardial ischemia [3]: 0 n (%)
Nasopharyngitis [3]: 0 n (%)
Nausea [3]: 1 (12.5) n (%)
Neutrophil count increased [3]: 0 n (%)
Oropharyngeal pain [3]: 0 n (%)
Proteinuria [3]: 0 n (%)
Psychiatric disorders (system organ class) [3]: 0 n (%)
Pyrexia [3]: 0 n (%)
Renal and urinary disorders (system organ class) [3]: 0 n (%)
Reproductive system and breast disorders (system organ class) [3]: 0 n (%)
Respiratory, thoracic and mediastinal disorders (system organ class) [3]: 1 (12.5) n (%)
Serious adverse event [3]: 0 n (%)
Sinus tachycardia [3]: 0 n (%)
Skin and subcutaneous tissue disorders (system organ class) [3]: 0 n (%)
Soft tissue injury [3]: 0 n (%)
Starvation [3]: 1 (12.5) n (%)
TEAE (individuals with ≥ 1 TEAE) [3]: 6 (75.0) n (%)
Thermal burn [3]: 0 n (%)
Tonsillitis [3]: 0 n (%)
Treatment-related AE [3]: 5 (62.5) n (%)
Upper respiratory tract infection [3]: 0 n (%)
Urticaria [3]: 0 n (%)
Vomiting [3]: 1 (12.5) n (%)
White blood cell count increased [3]: 0 n (%)
Magnitude of heart rate increase (12-lead ECG, first 6 weeks, more prominent later, especially 6.0 mg cohort, declining from week 9 (Fig. S3)): mild
Amylase, lipase and calcitonin levels (all IBI362 treatment groups (Fig S4)): increased in all IBI362 treatment groups but remained mostly within the normal reference range
Discontinuation of the study due to safety reason (all cohorts): No participant discontinued the study due to safety reason
Hypoglycaemia event or serious adverse event (all cohorts): No hypoglycaemia event or serious adverse event occurred
Investigator suspected pancreatitis (all cohorts): No investigator suspected pancreatitis was reported
Participants with at least one TEAE (all participants receiving IBI362 (n = 24), 19 participants): 79.2%
Nausea (all participants receiving IBI362 (n = 24), four participants): 16.7%
Decreased appetite (all participants receiving IBI362 (n = 24), seven participants): 29.2%
Diarrhea (all participants receiving IBI362 (n = 24), six participants): 25.0%
